# Results as given in article PMC7501296, “Rapid and direct control of target protein levels with VHL-recruiting dTAG molecules” (Nature Communications, 2020).
# Several values for one entry are separate records, joined by “and”; a condition that tells them apart may be missing. Equal entries are not always repeated.
# Key:
# Format in all cases: cell-based
# [1] = test system: PATU-8902 FKBP12^F36V-KRAS^G12V; KRAS^-/- clone; test: Antiproliferation, PATU-8902 FKBP12F36V-KRASG12V; KRAS-/- clone, 3D-spheroid (CellTiter-Glo); settings: FKBP12F36V-KRASG12V, KRAS-/-, 3D-spheroid, replicate values
# Method: (§1) Cell viability was assayed in 2D-adherent or ultra-low adherent 3D-spheroids using CellTiter-Glo (Promega)[6],[15]. Luminescence was measured on an Envision 2104 plate reader (PerkinElmer) and Fluostar Omega Reader (BMG Labtech) and data was analyzed using GraphPad PRISM v8. Synergy assessments were performed using CellTiter-Glo (Promega) with the following modifications to the protocol described in the ref. [34]. In brief, EWS502 cells were plated at 1000 cells per well in 50 µL of appropriate media in 384-well white culture plates (Corning) allowed to adhere overnight, and 100 nL of compounds were added using a Janus Workstation pin tool (PerkinElmer) for 72 h. Cell viability was measured by addition of 10 µL of CellTiter-glo (Promega), followed by incubation for 15 minutes at room temperature. Luminescence was measured on an Envision 2104 plate reader (PerkinElmer) and data was analyzed using GraphPad PRISM v8.
# [2] = test system: PATU-8902 LACZ-FKBP12^F36V clone; test: Antiproliferation, PATU-8902 LACZ-FKBP12F36V clone, 2D-monolayer (CellTiter-Glo)
# Method: as §1
# FKBP12^WT-Nluc = molecular target: T1, FKBP12^WT-Nluc (Homo sapiens, UniProt P62942); test: FKBP12WT-Nluc dual luciferase assay (293FT); settings: 293FT FKBP12WT-Nluc, 24 h
# T1 construct: expressed in transfected cells; host or cells: 293FT
# Method: (§2) Dual luciferase assays were performed using 293FT FKBP12^WT-Nluc and FKBP12^F36V-Nluc cells. In brief, cells were plated at 2000 cells per well in 20 µL of appropriate media in 384-well white culture plates (Corning), allowed to adhere overnight, and 100 nL of compounds were added using a Janus Workstation pin tool (PerkinElmer) for 24 h at 37 °C. To evaluate Fluc signal, plates were brought to room temperature, 20 µL of Dual-Glo Reagent (Promega) was added for 10 min and luminescence was measured on an Envision 2104 plate reader (PerkinElmer). Subsequently, 20 µL of Dual-Glo Stop & Glo Reagent (Promega) was added for 10 min and luminescence was again measured to capture Nluc signal. DMSO-normalized ratios of Nluc/Fluc signal was analyzed and plotted using GraphPad PRISM v8[6].
# [3] = test system: PATU-8902 LACZ-FKBP12^F36V clone; test: Antiproliferation, PATU-8902 LACZ-FKBP12F36V clone, 3D-spheroid (CellTiter-Glo)
# Method: as §1
# FKBP12^F36V-Nluc = molecular target: T2, FKBP12^F36V-Nluc (Homo sapiens, UniProt P62942, F37V); test: FKBP12F36V-Nluc dual luciferase assay (293FT); settings: 293FT FKBP12F36V-Nluc, 24 h
# T2 construct: expressed in transfected cells; host or cells: 293FT
# Method: as §2
# [4] = test system: PATU-8902 FKBP12^F36V-KRAS^G12V; KRAS^-/- clone; test: Antiproliferation, PATU-8902 FKBP12F36V-KRASG12V; KRAS-/- clone, 2D-monolayer (CellTiter-Glo)
# Method: as §1
# [5] = log10[compound] (M) -5.69897, replicate values
# [6] = log10[compound] (M) -6.19897, replicate values
# [7] = log10[compound] (M) -6.69897, replicate values
# [8] = log10[compound] (M) -7.19897, replicate values
# [9] = log10[compound] (M) -7.69897, replicate values
# [10] = log10[compound] (M) -8.19897, replicate values
# [11] = log10[compound] (M) -8.69897, replicate values
# [12] = log10[compound] (M) -9.19897, replicate values
# [13] = log10[compound] (M) -9.69897, replicate values
# [14] = log10[compound] (M) -10.199, replicate values
# [15] = log10[compound] (M) -5.30103, single replicates
# [16] = log10[compound] (M) -5.80103, single replicates
# [17] = log10[compound] (M) -6.30103, single replicates
# [18] = log10[compound] (M) -6.80103, single replicates
# [19] = log10[compound] (M) -7.30103, single replicates
# [20] = log10[compound] (M) -7.80103, single replicates
# [21] = log10[compound] (M) -8.30103, single replicates
# [22] = log10[compound] (M) -8.80103, single replicates
# [23] = log10[compound] (M) -9.30103, single replicates
# [24] = log10[compound] (M) -9.80103, single replicates
# T2 sequence (P62942 2-108 F37V limits assumed): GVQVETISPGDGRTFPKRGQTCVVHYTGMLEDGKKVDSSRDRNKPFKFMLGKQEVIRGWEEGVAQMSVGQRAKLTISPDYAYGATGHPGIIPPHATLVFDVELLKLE
# T1 sequence (P62942 2-108 limits assumed): as the sequence (P62942 2-108 F37V limits assumed) above, with V36F counted along it
smiles,measurement,setting,value
CC[C@H](C(=O)N1CCCC[C@H]1C(=O)O[C@H](CCc1ccc(OC)c(OC)c1)c1ccccc1OCC(=O)NCCCCCCCCNc1ccc2c(c1)C(=O)N(C1CCC(=O)NC1=O)C2=O)c1cc(OC)c(OC)c(OC)c1 (stereo partly drawn) [dTAG-47],DMSO-normalized antiproliferation,[1]; log10[compound] (M) -5.69897,10.0402 and 10.6917 and 15.8593 and 10.4467
same,DMSO-normalized antiproliferation,[1]; log10[compound] (M) -6.19897,11.3488 and 8.236 and 4.984 and 9.032
same,DMSO-normalized antiproliferation,[1]; log10[compound] (M) -6.69897,14.7066 and 10.4355 and 16.0487 and 8.1023
same,DMSO-normalized antiproliferation,[1]; log10[compound] (M) -7.19897,11.6773 and 15.954 and 8.269 and 8.1914
same,DMSO-normalized antiproliferation,[1]; log10[compound] (M) -7.69897,15.915 and 11.6328 and 15.6143 and 14.7735
same,DMSO-normalized antiproliferation,[1]; log10[compound] (M) -8.19897,17.2515 and 18.6047 and 14.0328 and 13.4092
same,DMSO-normalized antiproliferation,[1]; log10[compound] (M) -8.69897,38.6293 and 28.3831 and 27.3251 and 20.0636
same,DMSO-normalized antiproliferation,[1]; log10[compound] (M) -9.19897,80.9673 and 68.7721 and 60.1519 and 83.6347
same,DMSO-normalized antiproliferation,[1]; log10[compound] (M) -9.69897,92.188 and 73.717 and 97.9125 and 91.7258
same,DMSO-normalized antiproliferation,[1]; log10[compound] (M) -10.199,111.244 and 86.8032 and 100.63 and 85.0157
same,DMSO-normalized antiproliferation,[2]; [5],66.3552 and 78.983 and 129.177 and 83.2821
same,DMSO-normalized antiproliferation,[2]; [6],96.6043 and 136.336 and 78.4431 and 113.952
same,DMSO-normalized antiproliferation,[2]; [7],106.502 and 122.166 and 122.162 and 152.939
same,DMSO-normalized antiproliferation,[2]; [8],97.4699 and 137.606 and 129.786 and 96.3913
same,DMSO-normalized antiproliferation,[2]; [9],105.363 and 127.754 and 134.499 and 162.317
same,DMSO-normalized antiproliferation,[2]; [10],108.061 and 166.691 and 180.246 and 124.553
same,DMSO-normalized antiproliferation,[2]; [11],122.542 and 158.966 and 101.253 and 156.902
same,DMSO-normalized antiproliferation,[2]; [12],124.955 and 178.332 and 114.428 and 108.403
same,DMSO-normalized antiproliferation,[2]; [13],90.3511 and 110.898 and 123.983 and 115.732
same,DMSO-normalized antiproliferation,[2]; [14],132.189 and 174.913 and 122.829 and 145.695
same,DMSO-normalized ratio of Nluc/Fluc signal,FKBP12^WT-Nluc; [15],84.1355 and 61.3325 and 70.7772 and 69.8836
same,DMSO-normalized ratio of Nluc/Fluc signal,FKBP12^WT-Nluc; [16],93.0264 and 83.3041 and 88.6237 and 105.071
same,DMSO-normalized ratio of Nluc/Fluc signal,FKBP12^WT-Nluc; [17],94.1663 and 90.3102 and 81.5579 and 90.5666
same,DMSO-normalized ratio of Nluc/Fluc signal,FKBP12^WT-Nluc; [18],110.721 and 121.213 and 82.3107 and 91.0391
same,DMSO-normalized ratio of Nluc/Fluc signal,FKBP12^WT-Nluc; [19],107.713 and 93.6392 and 128.788 and 92.5578
same,DMSO-normalized ratio of Nluc/Fluc signal,FKBP12^WT-Nluc; [20],103.034 and 105.226 and 82.6165 and 80.9641
same,DMSO-normalized ratio of Nluc/Fluc signal,FKBP12^WT-Nluc; [21],109.495 and 103.137 and 100.817 and 113.935
same,DMSO-normalized ratio of Nluc/Fluc signal,FKBP12^WT-Nluc; [22],108.489 and 81.746 and 104.598 and 105.548
same,DMSO-normalized ratio of Nluc/Fluc signal,FKBP12^WT-Nluc; [23],150.295 and 133.521 and 111.306 and 119.516
same,DMSO-normalized ratio of Nluc/Fluc signal,FKBP12^WT-Nluc; [24],91.0985 and 100.837 and 94.8437 and 78.0176
same,DMSO-normalized antiproliferation,[3]; [5],89.4983 and 102.295 and 92.5832 and 113.039
same,DMSO-normalized antiproliferation,[3]; [6],114.787 and 91.3098 and 99.5825 and 107.277
same,DMSO-normalized antiproliferation,[3]; [7],113.465 and 134.808 and 116.567 and 121.226
same,DMSO-normalized antiproliferation,[3]; [8],129.284 and 117.496 and 141.381 and 115.953
same,DMSO-normalized antiproliferation,[3]; [9],103.38 and 130.979 and 121.849 and 101.748
same,DMSO-normalized antiproliferation,[3]; [10],127.652 and 127.302 and 105.649 and 114.859
same,DMSO-normalized antiproliferation,[3]; [11],124.033 and 144.628 and 127.266 and 105.313
same,DMSO-normalized antiproliferation,[3]; [12],110.895 and 108.017 and 114.025 and 143
same,DMSO-normalized antiproliferation,[3]; [13],107.098 and 111.016 and 108.066 and 105.932
same,DMSO-normalized antiproliferation,[3]; [14],102.188 and 109.313 and 104.448 and 106.317
same,DMSO-normalized ratio of Nluc/Fluc signal,FKBP12^F36V-Nluc; [15],9.718 and 7.82 and 6.838 and 6.452
same,DMSO-normalized ratio of Nluc/Fluc signal,FKBP12^F36V-Nluc; [16],7.4356 and 7.1545 and 9.246 and 9.013
same,DMSO-normalized ratio of Nluc/Fluc signal,FKBP12^F36V-Nluc; [17],8.136 and 6.155 and 6.261 and 6.581
same,DMSO-normalized ratio of Nluc/Fluc signal,FKBP12^F36V-Nluc; [18],5.707 and 7.548 and 7.612 and 6.01
same,DMSO-normalized ratio of Nluc/Fluc signal,FKBP12^F36V-Nluc; [19],6.03 and 9.875 and 9.62 and 12.7928
same,DMSO-normalized ratio of Nluc/Fluc signal,FKBP12^F36V-Nluc; [20],18.7955 and 27.4949 and 18.2618 and 15.8294
same,DMSO-normalized ratio of Nluc/Fluc signal,FKBP12^F36V-Nluc; [21],42.6816 and 38.7415 and 32.3273 and 32.9688
same,DMSO-normalized ratio of Nluc/Fluc signal,FKBP12^F36V-Nluc; [22],36.5732 and 37.1776 and 61.6483 and 62.7104
same,DMSO-normalized ratio of Nluc/Fluc signal,FKBP12^F36V-Nluc; [23],80.6958 and 88.3567 and 73.7011 and 76.297
same,DMSO-normalized ratio of Nluc/Fluc signal,FKBP12^F36V-Nluc; [24],75.9613 and 95.4034 and 80.0547 and 73.0727
same,DMSO-normalized antiproliferation,[4]; [5],6.913 and 6.748 and 7.162 and 6.575
same,DMSO-normalized antiproliferation,[4]; [6],6.887 and 6.816 and 9.161 and 7.924
same,DMSO-normalized antiproliferation,[4]; [7],8.541 and 7.72 and 7.186 and 7.798
same,DMSO-normalized antiproliferation,[4]; [8],7.406 and 10.8399 and 10.8629 and 7.675
same,DMSO-normalized antiproliferation,[4]; [9],12.7188 and 13.025 and 10.8965 and 13.2658
same,DMSO-normalized antiproliferation,[4]; [10],32.6374 and 45.5784 and 27.329 and 36.3182
same,DMSO-normalized antiproliferation,[4]; [11],78.991 and 62.9303 and 95.6226 and 83.1029
same,DMSO-normalized antiproliferation,[4]; [12],131.499 and 101.289 and 106.245 and 113.716
same,DMSO-normalized antiproliferation,[4]; [13],70.9753 and 109.585 and 109.74 and 110.516
same,DMSO-normalized antiproliferation,[4]; [14],108.82 and 120.301 and 99.0114 and 87.8166
